{"source": "paper PMC7565389", "about": "“Natural Potent NAAA Inhibitor Atractylodin Counteracts LPS-Induced Microglial Activation” (Frontiers in Pharmacology, 2020)", "molecules": {"B1": {"name": "recombinant human NAAA protein (Homo sapiens) (protein)", "chain": "SPPAAPRFNVSLDSVPELRWLPVLRHYDLDLVRAAMAQVIGDRVPKWVHVLIGKVVLELERFLPQPFTGEIRGMCDFMNLSLADCLLVNLAYESSVFCTSIVAQDSRGHIYHGRNLDYPFGNVLRKLTVDVQFLKNGQIAFTGTTFIGYVGLWTGQSPHKFTVSGDERDKGWWWENAIAALFRRHIPVSWLIRATLSESENFEAAVGKLAKTPLIADVYYIVGGTSPREGVVITRNRDGPADIWPLDPLNGAWFRVETNYDHWKPAPKEDDRRTSAIKALNATGQANLSLEALFQILSVVPVYNNFTIYTTVMSAGSPDKYMTRIRNPSRK", "notes": "purchased R&D Systems (Shanghai, China)"}}, "key": {"[1]": {"molecular_target": "T1, recombinant human NAAA protein (Homo sapiens, UniProt Q02083)", "T1 construct": "purchased R&D Systems (Shanghai, China)", "T1 sequence (Q02083 29-359)": "B1 chain", "assay": "Fluorometric NAAA activity assay (PAMCA hydrolysis)", "assay_type": "biochemical", "method": "(§1) Fluorometric NAAA activity measurement was used to evaluate the natural products inhibitory potency towards NAAA as previously reported with minor modifications ([West et al., 2012a]; [West et al., 2012b]). Briefly, in our initial screening, recombinant human NAAA protein was diluted in NAAA buffer (3 mM DTT, 0.1% Triton X-100, 0.05% BSA, 150 mM NaCl, pH 4.5) to 0.25 µg/ml and then 20 µL were transferred to a 96-well half-volume black plate followed by the addition of 2 µL of DMSO-diluted compounds at a final concentration of 50 µM. After shaking for 10 min on a shaking plate, 28 µL of the N-(4-methylcoumarin)-palmitamide (PAMCA) substrate in assay buffer (final concentration: 25 µM) were added, and the reaction was allowed to proceed at 37 °C for 30 min, then enzyme activity was monitored at a wavelength of 460 nm (excitation wavelength: 360 nm) on a multimode reader (Mithras LB 943, Berthold, Germany). Compounds showing > 50% inhibition were subjected to a series of two-fold dilutions for IC50 testing.\nAlthough several compounds have been discovered as NAAA inhibitors, reports on natural derivatives are limited. Here, we constructed a small library of 465 natural compounds consisting of alkaloids, flavonoids, coumarins, terpenoids, polyacetylenes, and aliphatics for activity screening. First, we established a high-throughput screening system for NAAA inhibitors using the fluorogenic compound N-(4-methyl coumarin) palmitamide (PAMCA) as hydrolyzed substrate ([West et al., 2012b]). PAMCA was metabolized to the fluorescent 7-amino-4-methyl coumarin (AMC) and palmitic acid by NAAA at pH 4.5 ( Figure 1A ). […] To further confirm the effectiveness of the screening system, another two reported potent NAAA inhibitors, F96 and AM9053, were tested."}, "[2]": {"test_system": "LPS-induced BV-2 microglial cells", "assay": "Nitrite production in LPS-induced BV-2 cells (Griess reagent)", "assay_type": "cell-based", "method": "(§2) The microglia cell line BV-2 was cultured in DMEM medium containing 10% fetal bovine serum and antibiotics (100 U/ml penicillin, 100 µg/ml streptomycin) and maintained in a humidified 5% CO2 incubator at 37°C. For the experiment, cells were seeded overnight into a 24-well plate for the cytokine assay or into 100-mm dishes for NAE extraction and quantification. The next day, the cells were incubated with fresh culture medium containing the indicated concentration of atractylodin for 0.5 h and following lipopolysaccharide (LPS) treatment (1 μg/ml). Cells incubated with vehicle only (DMSO, 0.1%) were used as control.\nThe concentration of nitrite in the culture medium was determined using a Griess reagent kit that reflected the amount of NO released by cultured cells. Culture supernatants (75 μl) were reacted with an equal volume of Griess reagent kit for 30 min at room temperature, and the absorbance of the diazonium compound at a wavelength of 560 nm was measured.\nThe cytotoxicity of the NAAA inhibitors on BV-2 cells was assessed using CCK-8. […] NAAA is highly expressed in immune cells, including tissue macrophages, monocytes, and microglia. […] The concentrations of nitrite were monitored using the Griess reagent kit."}, "LPS-induced BV-2 cells [3]": {"test_system": "LPS-induced BV-2 cells", "assay": "Pro-inflammatory cytokine release in LPS-induced BV-2 cells (ELISA)", "assay_type": "cell-based", "settings": "culture supernatant", "method": "as §2\nLPS was used to activate BV-2 cells to further assess the anti-inflammatory effects of atractylodin. […] Moreover, the ability to inhibit these inflammatory factors was stronger than the positive control drug dexamethasone (Dex) at a concentration of 10 µM ( Figure 6 )."}, "LPS-induced BV-2 cells [4]": {"test_system": "LPS-induced BV-2 cells", "assay": "Cellular PEA and OEA levels in LPS-induced BV-2 cells (HPLC-MS/MS)", "assay_type": "cell-based", "settings": "10 μM, LPS 6 h, compared to LPS-treated control", "method": "as §2\nFAEs were extracted from BV-2 cells as previously reported ([Yang et al., 2015]). […] An ABI 3200 Q-Trap mass spectrometer (Applied Biosystems, Concord, Canada equipped with a 1100-LC system (Agilent, Shanghai, China) was used in this experiment. The precursor/product ion transitions in multiple reaction monitoring mode (MRM) were used for mass analysis and quantitation. The molecular ions were monitored at m/z 300.2/62.0 for PEA, m/z 326.1/62.0 for OEA, m/z 348.00/62.00 for AEA, m/z 379.10/287.10 for 2-AG, and m/z 313.1/62.0 for C17:1 FAE.\nTo further investigate the contribution of endogenous fatty acid ethanolamide to the anti-inflammatory effect of atractylodin, cellular PEA and OEA levels were measured by HPLC-MS/MS analysis. […]"}, "NAAA": {"test_system": "NAAA", "settings": "read-out: IC50, NAAA inhibition (reported), cited from earlier work"}, "[5]": {"substrate": "CCCCCCCCCCCCCCCC(=O)Nc1ccc2c(C)cc(=O)oc2c1", "assay": "Fluorometric NAAA activity assay (PAMCA hydrolysis)", "assay_type": "biochemical, human", "settings": "other: pH 4.5, 37.0 °C", "method": "as §1\nAlthough several compounds have been discovered as NAAA inhibitors, reports on natural derivatives are limited. Here, we constructed a small library of 465 natural compounds consisting of alkaloids, flavonoids, coumarins, terpenoids, polyacetylenes, and aliphatics for activity screening. […]"}, "[6]": {"settings": "recombinant human NAAA, PAMCA 25 µM, pH 4.5, 37 °C 30 min, read-out: IC50, NAAA inhibition"}}, "note": "Like-named read-outs stand apart in the source and are kept apart here."}
{"molecule": "COc1ccc2cc1Oc1ccc(cc1)CC1c3cc(c(OC)cc3CCN1C)Oc1c(OC)c(OC)cc3c1C(C2)N(C)CC3", "note": "[D-tetrandrine]", "values": [{"measurement": "IC50", "setting": "[1]; [6]", "value": "52.9 ± 3.05", "unit": "µM"}]}
{"molecule": "O=c1cc(-c2ccc(O)c(-c3c(O)cc(O)c4c(=O)cc(-c5ccc(O)cc5)oc34)c2)oc2cc(O)cc(O)c12", "note": "[amentoflavone]", "values": [{"measurement": "IC50", "setting": "[1]; [6]", "value": "37.8 ± 4.04", "unit": "µM"}]}
{"molecule": "COc1cc(C[C@H](C)[C@H](C)Cc2ccc3c(c2)OCO3)ccc1O", "note": "[anwuligan]", "values": [{"measurement": "IC50", "setting": "[1]; [6]", "value": "23.8 ± 1.06", "unit": "µM"}]}
{"molecule": "C/C=C/C#CC#C/C=C/c1ccco1", "note": "[atractylodin]", "values": [{"measurement": "IC50", "setting": "[1]", "value": 2.81, "unit": "µM"}, {"measurement": "time course of NAAA inhibition (pre-incubation with hNAAA)", "setting": "[1]", "value": "rapid and unaffected by longer pre-incubation"}, {"measurement": "mechanism of NAAA inhibition (Lineweaver-Burk plot)", "setting": "[1]; atractylodin 3 µM", "value": "competitive"}, {"measurement": "NAAA activity after dialysis of the NAAA-inhibitor mixture", "setting": "[1]; dialysis in PBS buffer", "value": "fully recovered"}, {"measurement": "decrease of LPS-induced nitrite production", "setting": "[2]; 10 µM, 30 min pre-incubation, LPS 24 h, compared with vehicle group", "value": 68.21, "unit": "%"}, {"measurement": "inhibition of nitrite generation", "setting": "[2]; 1–10 µM, LPS-induced BV-2 cells", "value": "in a dose-dependent manner"}, {"measurement": "inhibition of IL-1β production", "setting": "LPS-induced BV-2 cells [3]", "value": "in a dose-dependent manner"}, {"measurement": "inhibition of IL-6 production", "setting": "LPS-induced BV-2 cells [3]", "value": "in a dose-dependent manner"}, {"measurement": "inhibition of TNF-α production", "setting": "LPS-induced BV-2 cells [3]", "value": "in a dose-dependent manner"}, {"measurement": "cellular OEA level", "setting": "LPS-induced BV-2 cells [4]", "value": "significantly increased"}, {"measurement": "cellular PEA level", "setting": "LPS-induced BV-2 cells [4]", "value": "significantly increased"}]}
{"molecule": "CC(=O)Oc1cccc2c1C(=O)c1c(OC(C)=O)cc(C(=O)O)cc1C2=O", "note": "[diacerein]", "values": [{"measurement": "IC50", "setting": "NAAA; ref Petrosino et al., 2015", "value": 7.2, "unit": "µM"}]}
{"molecule": "C\\C(C=C=C1C(C)(C)C[C@H](O)C[C@@]1(C)O)=C/C=C/C(C)=C/C=C/C=C(C)/C=C/C=C(\\C)C(=O)C[C@@]12O[C@]1(C)C[C@@H](O)CC2(C)C", "note": "[fucoxanthinol]", "values": [{"measurement": "IC50", "setting": "NAAA; ref Jin et al., 2020", "value": 12.8, "unit": "µM"}]}
{"molecule": "c1cc2c(cc1[C@H]1OC[C@H]3[C@@H]1CO[C@@H]3c1ccc3c(c1)OCO3)OCO2", "note": "[sesamin]", "values": [{"measurement": "IC50", "setting": "[1]; [6]", "value": "30.2 ± 2.09", "unit": "µM"}]}
{"molecule": "B1", "values": [{"measurement": "Km", "setting": "[5]", "value": "17.92 ± 3.54", "unit": "µM"}]}
